Type in all cases: in vivo
One experiment has as its system Armyworm. The experiment in a line: Test examples 2: leaf dipping method, Armyworm. The note with it: Mythimna separata, foliar, 72 h, after 3 days, read-out: The mortality rate (%) of the compound to Armyworm; for mortality at 12.5 µg/mL: 12.5 mg/L; for mortality at 25 µg/mL: 25 mg/L; for mortality at 50 µg/mL: 50 mg/L. The protocol: (§1) A certain amount of compound (0.0001 g) was weighed by using an analytical balance, and prepared to a mother liquid (1%) with N, N-dimethylformamide containing 1% Tween-80 emulsifier, and then the mother liquid was diluted with distilled water for standby.
(§2) Leaf dipping method: an appropriate amount of corn leaves/cabbage/cowpea were infiltrated in the prepared liquid and dried in the shade naturally, and then placed in a culture dish with filter paper; armyworm/Diamondback moth/Beet Armyworm larvae in the 2-3rd instar were inoculated to the corn leaves, 10 heads per dish, and the dishes were cultured in an observation room at 24-27° C. The results were investigated after 3 days. […] The test concentrations were 50 mg/L, 25 mg/L, 12.5 mg/L, 6.25 mg/L, 3.13 mg/L, 1.56 mg/L.

Another experiment deals with Diamondback moth. The experiment in a line: Test examples 2: leaf dipping method, Diamondback moth. The conditions noted are these: Plutella xylostella, foliar, 72 h, after 3 days, read-out: The mortality rate (%) of the compound to Diamondback moth; for mortality at 12.5 µg/mL: 12.5 mg/L; for mortality at 25 µg/mL: 25 mg/L; for mortality at 50 µg/mL: 50 mg/L. The protocol:
as §1, §2

For experiment [1], the system named is Frankliniella occidentalis. The experiment in a line: Test examples 2: spraying of cowpea leaf discs, Frankliniella occidentalis. The conditions noted are these: foliar, 24 h, after 1 day, read-out: The mortality rate (%) of the compound to Frankliniella occidentalis; for mortality at 5 µg/mL: 5 mg/L; for mortality at 10 µg/mL: 10 mg/L; for mortality at 20 µg/mL: 20 mg/L. The protocol:
as §1
Spraying: cowpea leaves growing uniformity were punched with a punching bear to make leaf discs, leaf discs were placed onto degreased cotton blocks in a dish, two leaf discs per dish, and water was added into the dish and it was flush with the leaf discs, and the dish was for standby. Frankliniella occidentalis in the 2-3rd instar were inoculated to the ready leaf discs, more than 15 per disc. Which were spayed under Potter spray tower at a dose of 0.5 mL per treatment. The blank control was treated first, and then the above operations were repeated in the order of the test dose from low to high, with 2 repeats per treatment. After treatment, the samples were placed in the observation room, and the results were investigated 1 day later. […] The test concentrations were 20 mg/L, 10 mg/L, 5.0 mg/L, 2.5 mg/L, 1.25 mg/L, 0.625 mg/L.

The subject of the next experiment is Beet Armyworm. In words: Test examples 2: leaf dipping method, Beet Armyworm. The note with it: Spodoptera exigua, foliar, 72 h, after 3 days, read-out: The mortality rate (%) of the compound to Beet Armyworm; for mortality at 12.5 µg/mL: 12.5 mg/L; for mortality at 25 µg/mL: 25 mg/L; for mortality at 50 µg/mL: 50 mg/L. The protocol:
as §1, §2

Structures are written as SMILES.

By mortality is commonly meant the share of the test organisms that died.

As for `CCc1nc2cc(C)c(Oc3ccc(OC(F)(F)F)cc3)c(C)c2c(OC(=O)OCCOC(C)C)c1C` [Example 41, 2-ethyl-3,5,7-trimethyl-6-(4-(trifluoromethoxy)phenoxy)quinolin-4-yl (2-isopropoxyethyl) carbonate], in the experiment with Armyworm, the mortality at 12.5 µg/mL turned out to be 80%, the mortality at 25 µg/mL amounted to 100% and the mortality at 50 µg/mL worked out at 100%. In the experiment with Diamondback moth, the mortality at 12.5 µg/mL came out at 90%, the mortality at 25 µg/mL is 100% and the mortality at 50 µg/mL turned out to be 100%.

With `CCc1nc2cc(C)c(Oc3ccc(C(C)(C)C)cc3)cc2c(OC(=O)OCCOC)c1C` [Example 4, 6-(4-(tert-butyl)phenoxy)-2-ethyl-3,7-dimethylquinolin-4-yl (2-methoxyethyl)carbonate], in the experiment with Armyworm, the mortality at 12.5 µg/mL stood at 80%, the mortality at 25 µg/mL amounted to 90% and the mortality at 50 µg/mL came out at 100%. Besides, in the experiment on Diamondback moth, the mortality at 12.5 µg/mL stood at 90%, the mortality at 25 µg/mL was found to be 100% and the mortality at 50 µg/mL came to 100%.

As for `CCOCCOC(=O)Oc1c(C)c(CC)nc2cc(C)c(Oc3ccc(OC(F)(F)F)cc3)c(C)c12` [Example 40, 2-ethoxyethyl (2-ethyl-3,5,7-trimethyl-6-(4-(trifluoromethoxy)phenoxy)quinolin-4-yl) carbonate], in the experiment with Armyworm, the mortality at 12.5 µg/mL worked out at 95%, the mortality at 25 µg/mL came out at 100% and the mortality at 50 µg/mL is 100%. Further, in the experiment on Diamondback moth, the mortality at 12.5 µg/mL was determined as 95%, the mortality at 25 µg/mL was 100% and the mortality at 50 µg/mL turned out to be 100%.

Turning to `CCc1nc2cc(C)c(Oc3ccc(OC(F)(F)F)cc3)cc2c(OC(=O)OCCOCCOC)c1C` [Example 7], in experiment [1], the mortality at 5 µg/mL was 95%, the mortality at 10 µg/mL was found to be 100% and the mortality at 20 µg/mL stood at 100%. Moreover, in the experiment on Armyworm, the mortality at 12.5 µg/mL stood at 100%, the mortality at 25 µg/mL was found to be 100% and the mortality at 50 µg/mL came to 100%. For the same compound, in the experiment with Beet Armyworm, the mortality at 12.5 µg/mL was 80%, the mortality at 25 µg/mL was 100% and the mortality at 50 µg/mL was determined as 100%. In the experiment with Diamondback moth, the mortality at 12.5 µg/mL is 85%, the mortality at 25 µg/mL is 90% and the mortality at 50 µg/mL is 100%.

Turning to `CCc1nc2cc(C)c(Oc3ccc(OC(F)(F)F)cc3)c(C)c2c(OC(=O)OCC2CCCO2)c1C` (stereo not drawn) [Example 37], in experiment [1], the mortality at 5 µg/mL amounted to 95%, the mortality at 10 µg/mL amounted to 100% and the mortality at 20 µg/mL was determined as 100%. Besides, in the experiment with Armyworm, the mortality at 12.5 µg/mL was 100%, the mortality at 25 µg/mL is 100% and the mortality at 50 µg/mL is 100%. For the same compound, in the experiment with Beet Armyworm, the mortality at 12.5 µg/mL was determined as 75%, the mortality at 25 µg/mL stood at 100% and the mortality at 50 µg/mL stood at 100%. Besides, in the experiment with Diamondback moth, the mortality at 12.5 µg/mL turned out to be 95%, the mortality at 25 µg/mL was 100% and the mortality at 50 µg/mL turned out to be 100%.

`CCOCCOC(=O)Oc1c(C)c(CC)nc2cc(C)c(Oc3ccc(OC(F)(F)F)cc3)cc12` [Example 17, 2-ethoxyethyl (2-ethyl-3,7-dimethyl-6-(4-(trifluoromethoxy)phenoxy)quinolin-4-yl) carbonate]: in the experiment on Armyworm, the mortality at 12.5 µg/mL was determined as 100%, the mortality at 25 µg/mL turned out to be 100% and the mortality at 50 µg/mL was determined as 100%. In the experiment with Diamondback moth, the mortality at 12.5 µg/mL was determined as 100%, the mortality at 25 µg/mL was 100% and the mortality at 50 µg/mL came out at 100%.

With `CCc1nc2cc(C)c(Oc3ccc(OC(F)(F)F)cc3)cc2c(OC(=O)OCC2CCCO2)c1C` (stereo not drawn) [Example 8], in experiment [1], the mortality at 5 µg/mL stood at 85%, the mortality at 10 µg/mL came to 100% and the mortality at 20 µg/mL was found to be 100%. In addition, in the experiment with Armyworm, the mortality at 12.5 µg/mL was determined as 100%, the mortality at 25 µg/mL was 100% and the mortality at 50 µg/mL came to 100%. Also, in the experiment on Beet Armyworm, the mortality at 12.5 µg/mL was found to be 70%, the mortality at 25 µg/mL is 95% and the mortality at 50 µg/mL is 100%. In the experiment with Diamondback moth, the mortality at 12.5 µg/mL is 93%, the mortality at 25 µg/mL worked out at 100% and the mortality at 50 µg/mL is 100%.

For `CCc1nc2cc(C)c(Oc3ccc(C(C)(C)C)cc3)c(C)c2c(OC(=O)OCC2CCCO2)c1C` (stereo not drawn) [Example 36, 6-(4-(tert-butyl)phenoxy)-2-ethyl-3,5,7-trimethylquinolin-4-yl ((tetrahydrofuran-2-yl)methyl) carbonate], in the experiment on Armyworm, the mortality at 12.5 µg/mL amounted to 90%, the mortality at 25 µg/mL was 100% and the mortality at 50 µg/mL was 100%. Moreover, in the experiment on Diamondback moth, the mortality at 12.5 µg/mL was found to be 85%, the mortality at 25 µg/mL came out at 95% and the mortality at 50 µg/mL turned out to be 100%.

For `CCc1nc2cc(C)c(Oc3ccc(C(C)(C)C)cc3)c(C)c2c(OC(=O)OCCOC)c1C` [Example 26, 6-(4-(tert-butyl)phenoxy)-2-ethyl-3,5,7-trimethylquinolin-4-yl (2-methoxyethyl) carbonate], in the experiment with Armyworm, the mortality at 12.5 µg/mL was determined as 90%, the mortality at 25 µg/mL is 100% and the mortality at 50 µg/mL was 100%. In the experiment on Diamondback moth, the mortality at 12.5 µg/mL is 85%, the mortality at 25 µg/mL came out at 95% and the mortality at 50 µg/mL was 100%.

With `CCc1nc2ccc(Oc3ccc(C(C)(C)C)cc3)c(C)c2c(OC(=O)OCC2CCCO2)c1C` (stereo not drawn) [Example 35, 6-(4-(tert-butyl)phenoxy)-2-ethyl-3,5-dimethylquinolin-4-yl ((tetrahydrofuran-2-yl)methyl) carbonate], in the experiment with Armyworm, the mortality at 12.5 µg/mL came to 80%, the mortality at 25 µg/mL worked out at 95% and the mortality at 50 µg/mL is 100%. In the experiment on Diamondback moth, the mortality at 12.5 µg/mL was 80%, the mortality at 25 µg/mL was 90% and the mortality at 50 µg/mL worked out at 100%.

`CCc1nc2ccc(Oc3ccc(OC(F)(F)F)cc3)c(C)c2c(OC(=O)OCC2CCCO2)c1C` (stereo not drawn) [Example 38]: in experiment [1], the mortality at 5 µg/mL was found to be 90%, the mortality at 10 µg/mL came to 100% and the mortality at 20 µg/mL worked out at 100%. In the experiment on Armyworm, the mortality at 12.5 µg/mL was determined as 90%, the mortality at 25 µg/mL was found to be 100% and the mortality at 50 µg/mL is 100%. Further, in the experiment on Beet Armyworm, the mortality at 12.5 µg/mL came out at 70%, the mortality at 25 µg/mL was determined as 100% and the mortality at 50 µg/mL was determined as 100%. In addition, in the experiment with Diamondback moth, the mortality at 12.5 µg/mL amounted to 92%, the mortality at 25 µg/mL worked out at 100% and the mortality at 50 µg/mL worked out at 100%.

As for `CCc1nc2ccc(Oc3ccc(OC(F)(F)F)cc3)c(C)c2c(OC(=O)OCCOC)c1C` [Example 39, 2-ethyl-3,5-dimethyl-6-(4-(trifluoromethoxy)phenoxy)quinolin-4-yl (2-methoxyethyl) carbonate], in the experiment with Armyworm, the mortality at 12.5 µg/mL came out at 100%, the mortality at 25 µg/mL was determined as 100% and the mortality at 50 µg/mL worked out at 100%. For the same compound, in the experiment with Diamondback moth, the mortality at 12.5 µg/mL is 100%, the mortality at 25 µg/mL came out at 100% and the mortality at 50 µg/mL stood at 100%.

`CCc1nc2ccc(Oc3ccc(C(C)(C)C)cc3)c(C)c2c(OC(=O)OCCOC)c1C` [Example 22, 6-(4-(tert-butyl)phenoxy)-2-ethyl-3,5-dimethylquinolin-4-yl (2-methoxyethyl) carbonate]: in the experiment on Armyworm, the mortality at 12.5 µg/mL came out at 80%, the mortality at 25 µg/mL was determined as 95% and the mortality at 50 µg/mL came to 100%. Besides, in the experiment on Diamondback moth, the mortality at 12.5 µg/mL amounted to 85%, the mortality at 25 µg/mL is 90% and the mortality at 50 µg/mL came out at 100%.
